Results taken from patent publication US9375496B2, “Halogenated compounds for cancer imaging and treatment and methods for their use” (The University of British Columbia, priority 2013, dated 2016).
Where two headings read alike, the source gives them in different places.

Tests used:
AR = target: T1, AR (Homo sapiens, UniProt P10275, T878A); experiment: PSA(6.1 kb)-luciferase reporter assay in LNCaP cells (androgen-induced AR transcriptional activity); assay type: cell-based; details: LNCaP, PSA(6.1 kb)-luciferase, 1 h pre-treatment, R1881 1 nM 24 h
T1 construct: LNCaP cells with endogenous AR; endogenous in cells; host or cells: LNCaP
T1 sequence (P10275 1-920 T878A): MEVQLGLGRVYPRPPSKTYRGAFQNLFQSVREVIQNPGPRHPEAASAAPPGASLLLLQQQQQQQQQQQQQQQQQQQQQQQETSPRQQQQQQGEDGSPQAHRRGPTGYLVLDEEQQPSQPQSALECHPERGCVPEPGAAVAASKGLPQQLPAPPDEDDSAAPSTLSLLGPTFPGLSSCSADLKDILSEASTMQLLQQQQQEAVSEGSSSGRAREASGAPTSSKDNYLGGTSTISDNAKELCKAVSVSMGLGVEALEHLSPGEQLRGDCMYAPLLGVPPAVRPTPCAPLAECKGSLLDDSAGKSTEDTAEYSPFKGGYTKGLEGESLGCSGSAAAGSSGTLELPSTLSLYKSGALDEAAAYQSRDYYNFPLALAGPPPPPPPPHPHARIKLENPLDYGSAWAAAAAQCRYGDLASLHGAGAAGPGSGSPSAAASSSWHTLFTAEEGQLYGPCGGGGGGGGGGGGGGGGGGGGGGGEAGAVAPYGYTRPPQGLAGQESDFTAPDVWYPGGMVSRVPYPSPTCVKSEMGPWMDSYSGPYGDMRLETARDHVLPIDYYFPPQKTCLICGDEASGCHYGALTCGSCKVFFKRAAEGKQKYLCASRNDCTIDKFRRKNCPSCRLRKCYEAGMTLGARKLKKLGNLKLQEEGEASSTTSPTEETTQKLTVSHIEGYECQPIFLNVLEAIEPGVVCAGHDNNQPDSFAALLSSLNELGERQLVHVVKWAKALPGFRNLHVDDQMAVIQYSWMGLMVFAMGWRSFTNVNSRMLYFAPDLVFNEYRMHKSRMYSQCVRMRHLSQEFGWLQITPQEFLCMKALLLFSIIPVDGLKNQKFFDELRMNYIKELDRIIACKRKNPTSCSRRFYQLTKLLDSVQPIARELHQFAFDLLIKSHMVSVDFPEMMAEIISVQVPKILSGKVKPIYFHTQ
Description: The PSA-luciferase (6.1 kb) reporter contains functional AREs to which AR binds in response to androgen to induce luciferase activity. LNCaP cells were transfected with the PSA(6.1 kb)-luciferase reporter for 24 h, and then treated with indicated concentration of 8d (also referred as EPI-iodide or iodinated EPI) with synthetic androgen, R1881 (1 nM) for 24 h. After 24 h of incubation with R1881, the cells were harvested, and relative luciferase activities were determined (FIG. 1A). To determine the IC50, treatments were normalized to the predicted maximal activity induction (in the absence of test compounds, vehicle only) (FIG. 1B).
To measure effect on AR, after the LNCaP cells were transfected with the PSA(6.1 kb)-luciferase reporter for 24 h, they were then treated with DMSO, 5 μM MDV3100, 25 μM Z (also referred to as EPI-002 or EPI), or 1.9 μM 8d with or without 1 nM R1881 for 24 h (FIG. 2A).
LNCaP cells were transiently transfected with PSA (6.1 kb)-luciferase for 24 h prior to pre-treatment with compounds of the invention (e.g., compounds 9d, 10d, 11d) ranging in concentration from 62.5 ng/ml to 1.5 ug/ml for 1 hour before the addition of vehicle, or synthetic androgen, R1881 (1 nM) to induce luciferase production. After 24 h of incubation with R1881, the cells were harvested, and relative luciferase activities were determined. To determine the IC50, treatments were normalized to the predicted maximal activity induction (in the absence of test compounds, vehicle only) (FIG. 1B).

[1] = target: T2, recombinant protein AR activation function-1 (AF1) (Homo sapiens, UniProt P10275); experiment: Covalent binding to recombinant AR AF1 evaluated by SDS-PAGE
T2 sequence (P10275 144-486 limits assumed): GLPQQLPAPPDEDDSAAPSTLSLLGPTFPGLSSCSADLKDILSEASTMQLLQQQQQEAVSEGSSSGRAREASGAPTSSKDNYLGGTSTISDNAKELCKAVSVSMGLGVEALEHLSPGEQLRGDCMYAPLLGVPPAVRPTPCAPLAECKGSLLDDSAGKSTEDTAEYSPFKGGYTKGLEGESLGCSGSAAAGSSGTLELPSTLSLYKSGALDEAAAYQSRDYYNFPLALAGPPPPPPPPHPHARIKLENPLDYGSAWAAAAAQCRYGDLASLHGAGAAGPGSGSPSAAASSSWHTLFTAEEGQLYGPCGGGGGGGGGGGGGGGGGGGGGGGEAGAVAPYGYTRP
Description: Covalent binding experiments of 1d (also referred to as ^123I-EPI) to recombinant protein AR activation function-1 (AF1) was evaluated by SDS-PAGE (FIG. 15). After 6 h incubation at room temperature, 1d bound to the recombinant protein AR AF1. Less binding of 1d was observed when AR AF1 was pre-incubated with cold Z which is thought to bind to the same site as 1d. The SDS-PAGE gel was stained with Coomassie blue for loading control of the amount of AF1 protein.

[2] = Trial 1, read-out: IC50 Trial 1
[3] = Trial 2, read-out: IC50 Trial 2
[4] = Trial 3, read-out: IC50 Trial 3
[5] = Trial 4, read-out: IC50 Trial 4
[6] = average of 4 trials, read-out: IC50 Average

## CC(C)(c1ccc(OC[C@H](O)CO)cc1)c1ccc(OC[C@H](O)CCl)c(Br)c1 [Compound 9d, (R)-3-(4-(2-(3-bromo-4-((S)-3-chloro-2-hydroxypropoxy)phenyl)propan-2-yl)phenoxy)propane-1,2-diol]
AR; [2]
  IC50: 2070 nM
AR; [3]
  IC50: 2740 nM
AR; [4]
  IC50: 2960 nM
AR; [5]
  IC50: 3360 nM
AR; [6]
  IC50: 2780 nM

## CC(C)(c1ccc(OC[C@H](O)CO)cc1)c1ccc(OC[C@H](O)CCl)c(Cl)c1 [Compound 10d, (R)-3-(4-(2-(3-chloro-4-((S)-3-chloro-2-hydroxypropoxy)phenyl)propan-2-yl)phenoxy)propane-1,2-diol]
AR; [2]
  IC50: 2530 nM
AR; [3]
  IC50: 2300 nM
AR; [4]
  IC50: 2810 nM
AR; [5]
  IC50: 2840 nM
AR; [6]
  IC50: 2620 nM

## CC(C)(c1ccc(OC[C@H](O)CO)cc1)c1ccc(OC[C@H](O)CCl)c(F)c1 [Compound 11d, (R)-3-(4-(2-(4-((S)-3-chloro-2-hydroxypropoxy)-3-fluorophenyl)propan-2-yl)phenoxy)propane-1,2-diol]
AR; [2]
  IC50: 5950 nM
AR; [3]
  IC50: 3600 nM
AR; [4]
  IC50: 7330 nM
AR; [5]
  IC50: 5400 nM
AR; [6]
  IC50: 5570 nM

## CC(C)(c1ccc(OC[C@H](O)CO)cc1)c1ccc(OC[C@H](O)CCl)c([123I])c1 [Compound 1d, (R)-3-(4-(2-(4-((S)-3-chloro-2-hydroxypropoxy)-3- ^123iodophenyl)propan-2-yl)phenoxy)propane-1,2-diol]
[1]; 6 h incubation at room temperature
  covalent binding to recombinant protein AR AF1: bound
[1]; AR AF1 pre-incubated with cold Z
  binding to AR AF1 after pre-incubation with cold Z: Less binding
